Molecules are shown by their SMILES. Converted amounts (≈) assume the structure as drawn. Read-outs that look alike come from different tables or passages of the source.

This is an account of results in patent US20220340564A1, “ANTIBACTERIAL COMPOUNDS” (Janssen Sciences Ireland Unlimited Company, priority 2019, published 2022).

The subject of data set [1] is Mycobacterium tuberculosis strain EH4.0 expressing green-fluorescent protein (GFP). The data set can be described thus: microbe, parasite or virus in culture. In kind it is cell-based. The conditions noted are these: 168 h, read-out: pIC50 (converted).
Data set [2] has as its system Cyp-450 (cocktail, isoforms not named). The data set can be described thus: Cocktail Cyp-450 inhibition. The class given is in vitro ADME. The source says:
(§1) The compounds of the invention/examples may have advantages associated with in vitro potency, kill kinetics (i.e. bactericidal effect) in vitro, PK properties, food effect, safety/toxicity (including liver toxicity, coagulation, […]), metabolic stability, Ames II negativity, MNT negativity, aqueous based solubility (and ability to formulate) and/or cardiovascular effect e.g. on animals (e.g. anesthetized guinea pig). The data below that was generated/calculated may be obtained using standard methods/assays, for instance that are available in the literature or which may be performed by a supplier (e.g. Microsomal Stability Assay—Cyprotex, Mitochondrial toxicity (Glu/Gal) assay —Cyprotex, as well as literature CYP cocktail inhibition assays). In some instances, GSH was measured (reactive metabolites, glucuronidation) to observe if a dihydrodiol is observed by LCMS (fragmentation ions), which would correspond to a dihydroxylation on the core heterocycle.

Data set [3] has as its system Ca Ch. In words: CVS panel, Ca channel.
Source text: as §1

Data set [4] in a line: Microsomal stability CLint (M). The settings on record: mouse, microsomes.
Data set [5] has as its system Na Ch. The data set can be described thus: CVS panel, Na channel.
The nature of data set [6]: Mitochondrial toxicity (Glu/Gal) assay. In kind it is cell-based.
Source text: as §1

Data set [7] concerns the target hERGdof (Homo sapiens, UniProt Q12809). The data set can be described thus: CVS panel, hERGdof. The class given is binding.
Data set [8] can be described thus: Bioavailability in rodents.
Data set [9] in a line: Microsomal stability CLint (H). The settings on record: human, microsomes.
Data set [10] is described as follows: GSH (GSH/CN) reactive metabolite measurement. In kind it is in vitro ADME.
Source text: as §1

Data set [11] in a line: in vitro. The settings on record: human, microsomes.
Data set [12] in a line: in vitro. The settings on record: mouse, microsomes.
Data set [13] addresses hERG (Homo sapiens, UniProt Q12809). The data set can be described thus: CVS panel, hERGdof. The class given is binding. The settings on record: human.
Data set [14] deals with CYP3A4 (Homo sapiens, UniProt P08684). In words: Cocktail Cyp-450 inhibition, CYP3A4. In kind it is in vitro ADME.
CYP3A4, sequence (P08684 whole entry): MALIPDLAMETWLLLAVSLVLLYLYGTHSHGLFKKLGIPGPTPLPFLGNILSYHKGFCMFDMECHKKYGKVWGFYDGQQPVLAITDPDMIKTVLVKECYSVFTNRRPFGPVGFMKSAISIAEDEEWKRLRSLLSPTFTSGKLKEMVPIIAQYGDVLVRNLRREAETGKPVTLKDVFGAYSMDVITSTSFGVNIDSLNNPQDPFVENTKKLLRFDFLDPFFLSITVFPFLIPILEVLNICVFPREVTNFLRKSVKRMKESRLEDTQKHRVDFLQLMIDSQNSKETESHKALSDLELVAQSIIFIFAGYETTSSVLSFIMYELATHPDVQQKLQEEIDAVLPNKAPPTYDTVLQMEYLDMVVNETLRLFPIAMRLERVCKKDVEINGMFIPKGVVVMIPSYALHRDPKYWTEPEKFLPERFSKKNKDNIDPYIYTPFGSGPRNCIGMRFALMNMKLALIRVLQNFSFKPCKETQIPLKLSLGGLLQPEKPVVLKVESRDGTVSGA
For data set [15] the following is noted: in vivo.
The nature of data set [16]: physchem. The settings on record: thermodynamic from solid.
A short description of data set [17]: in vitro. The conditions noted are these: mouse, hepatocytes.
Data set [18] is described as follows: in vivo. The conditions noted are these: rat, po, 5 mg/kg. The procedure:
Oral Bioavailability of Compound 161 in Rat
Compound 161 was administer PO in rat (5 mg/kg, PEG4000 (sol.), 0.5 w/v Methocel (susp.) and the following results were obtained for the solution and suspension.

Data set [19] can be described thus: in vitro. The settings on record: rat, hepatocytes.
Data set [20] can be described thus: in vitro. The conditions noted are these: mouse.
A short description of data set [21]: in vitro. The settings on record: human, hepatocytes.
Data set [22] can be described thus: in vitro. The conditions noted are these: human.
Data set [23] can be described thus: AMES II. In kind it is cell-based.
Source text: as §1

The target in data set [24] is Kinase panel. In words: Kinase panel. The class given is biochemical.
In data set [25] the test system is Cyp 3A4. The data set can be described thus: Cyp 3A4 induction. The conditions noted are these: at 1 μM.
The nature of data set [26]: in vitro. The conditions noted are these: dog, hepatocytes.
For data set [27], the system named is M. tuberculosis H37Rv. The conditions noted are these: M. tuberculosis H37Rv inside macrophages; J. Medicinal Chemistry, 2014, 57 (12), pp 5293-5305; cited from earlier work.
Where [28] appears, read: unit inferred, read-out: Cocktail Cyp-450, IC50.

hERGdof, sequence (Q12809 whole entry): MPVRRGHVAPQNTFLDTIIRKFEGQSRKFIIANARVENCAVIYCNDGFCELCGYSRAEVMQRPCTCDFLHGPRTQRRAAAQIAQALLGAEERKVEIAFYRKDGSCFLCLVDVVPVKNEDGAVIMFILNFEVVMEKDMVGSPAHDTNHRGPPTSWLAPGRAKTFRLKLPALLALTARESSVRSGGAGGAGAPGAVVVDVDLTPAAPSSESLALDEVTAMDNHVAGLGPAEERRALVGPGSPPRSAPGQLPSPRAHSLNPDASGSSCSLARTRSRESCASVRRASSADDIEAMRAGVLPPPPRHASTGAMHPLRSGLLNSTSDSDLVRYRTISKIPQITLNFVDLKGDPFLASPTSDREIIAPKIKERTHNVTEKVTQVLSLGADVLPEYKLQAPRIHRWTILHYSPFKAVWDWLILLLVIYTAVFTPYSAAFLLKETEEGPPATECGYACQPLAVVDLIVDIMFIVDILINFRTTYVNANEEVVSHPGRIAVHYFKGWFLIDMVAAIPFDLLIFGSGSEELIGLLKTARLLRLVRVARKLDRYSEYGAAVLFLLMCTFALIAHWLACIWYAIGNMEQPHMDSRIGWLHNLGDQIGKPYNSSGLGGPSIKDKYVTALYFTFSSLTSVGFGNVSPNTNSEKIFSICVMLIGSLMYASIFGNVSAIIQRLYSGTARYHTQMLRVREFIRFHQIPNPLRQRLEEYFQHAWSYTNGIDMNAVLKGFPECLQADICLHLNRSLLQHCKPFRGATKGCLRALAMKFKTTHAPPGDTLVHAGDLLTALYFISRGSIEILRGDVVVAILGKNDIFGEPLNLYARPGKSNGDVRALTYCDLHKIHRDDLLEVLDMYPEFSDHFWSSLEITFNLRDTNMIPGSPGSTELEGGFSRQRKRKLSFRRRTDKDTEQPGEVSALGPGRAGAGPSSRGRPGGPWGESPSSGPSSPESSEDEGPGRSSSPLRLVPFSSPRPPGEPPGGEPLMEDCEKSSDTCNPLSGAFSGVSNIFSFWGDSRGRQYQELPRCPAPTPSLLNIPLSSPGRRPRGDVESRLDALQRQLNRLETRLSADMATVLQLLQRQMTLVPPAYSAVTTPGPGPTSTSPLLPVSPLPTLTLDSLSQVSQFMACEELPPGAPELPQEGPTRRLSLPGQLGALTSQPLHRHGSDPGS
hERG, sequence (Q12809 whole entry): as above

For orientation: microsomal CLint means the rate of metabolic loss divided by the concentration. `CCc1nc2ccc(Cl)cn2c1C(=O)NCc1ccc(N2CCN(S(=O)(=O)C(F)(F)F)C=N2)cc1` [Compound 1]: the IC50 is 0.00708 µM in data set [1]; greater than 20 µM in [2] (setting [28]); greater than 10 µM in [3]; greater than 10 µM in data set [5]; greater than 10 µM in [7]. In addition, the microsomal CLint in data set [4] worked out at 21.5 µL/min/mg; in [9], 29.6 µL/min/mg. Moreover, in [6], the “Glu/Gal assay ratio (mitotoxicity)” value is on record as less than 3. Besides, in [8], the “bioavailability (as shown in rodents)” value is listed as “good bioavailaibility”.
As for `CCc1nc2ccc(Cl)cn2c1C(=O)NCc1ccc(N2CCN(S(=O)(=O)C(F)(F)F)C(OC)=N2)cc1` [Compound 6], the IC50 in [1] was 0.00631 µM; in data set [2] (setting [28]), greater than 20 µM; in data set [3] it was greater than 10 µM; in [5], greater than 10 µM; in [7] (read-out: CVS hERGdof, IC50), greater than 10 µM. For the same compound, the “GSH / reactive metabolites” value in [10] is recorded as “no measure of GSH”. The microsomal CLint in data set [11] was determined as 37.6 µL/min/mg; in data set [12], 49 µL/min/mg. Further, the “Glu/Gal assay ratio (mitotoxicity)” value in data set [6] was less than 3.
Take `CCc1nc2ccc(Cl)cn2c1C(=O)NCc1ccc(N2CCN(S(=O)(=O)C(F)(F)F)C=N2)c(F)c1` [Compound 9]: the IC50 in data set [1] was 0.000631 µM; in [2] (setting [28]), greater than 20 µM; in [3], greater than 10 µM; in data set [5], greater than 10 µM; in data set [7] (read-out: CVS hERGdof, IC50) it was greater than 10 µM. The microsomal CLint in data set [4] turned out to be 41 µL/min/mg; in [9], 19 µL/min/mg.
On to `CCc1nc2ncc(Cl)cn2c1C(=O)NCc1ccc(N2CCN(S(=O)(=O)C(F)(F)F)C=N2)cc1` [Compound 13], for which the IC50 in data set [1] is 0.00398 µM; in data set [2] (setting [28]), greater than 20 µM; in data set [3], greater than 10 µM; in data set [5], greater than 10 µM; in [13], 7.4 µM. For the same compound, the results for the microsomal CLint in [4] and in data set [9] were 13.3 µL/min/mg and 16.3 µL/min/mg, respectively.
For the compound `CCc1nc2ccc(Cl)cn2c1C(=O)NCc1ccc(N2CCN(S(=O)(=O)C(F)(F)F)C=N2)cc1F` [Compound 16], the IC50 in [1] is 0.00631 µM; in data set [2] (setting [28]), greater than 20 µM; in [3], greater than 10 µM; in [5], greater than 10 µM; in data set [7] (read-out: CVS hERGdof, IC50), greater than 10 µM. In addition, the microsomal CLint in data set [4] is 18 µL/min/mg; in data set [9], 24 µL/min/mg.
In the case of `CCc1nc2ccc(Cl)cn2c1C(=O)NCc1ccc(N2CCN(S(C)(=O)=O)C=N2)cc1` [Compound 20], the IC50 in data set [1] was 0.0316 µM; in data set [2] (setting [28]) it was greater than 20 µM; in [3] it was greater than 10 µM; in data set [5], greater than 10 µM; in data set [7] (read-out: CVS hERGdof, IC50), greater than 10 µM; in data set [14], 13.2 µM. In addition, the intrinsic metabolic clearance (microsomal CLint) in data set [11] came out at 56.6 µL/min/mg; in data set [12], 15.9 µL/min/mg.
`CCc1nc2ccc(C#N)cn2c1C(=O)NCc1ccc(N2CCN(S(=O)(=O)C(F)(F)F)C(OC)=N2)c(F)c1` [Compound 73]: the IC50 is 0.0513 µM in data set [1]; greater than 20 µM in [2] (setting [28]); greater than 10 µM in data set [3]; greater than 10 µM in data set [5]; greater than 10 µM in data set [7] (read-out: CVS hERGdof, IC50). Also, the “GSH / reactive metabolites” value in data set [10] is on record as “no measure of GSH”. Further, the values for the microsomal CLint in [11] and in data set [12] were 18 µL/min/mg and 93 µL/min/mg, respectively.
For the compound `O=C(NCc1ccc(N2CCN(S(=O)(=O)C(F)(F)F)C=N2)c(F)c1)c1c(C(F)(F)F)nc2ccccn12` [Compound 152], the IC50 in data set [1] was 0.002 µM. The “GSH / reactive metabolites” value in data set [10] is recorded as “formation of reactive metabolites was blocked”. In addition, in [6], the “Glu/Gal assay ratio (mitotoxicity)” value is on record as less than 3. Also, in data set [15], the “bioavailability (as shown in rodents)” value is “good bioavailaibility”.
In general, solubility (thermodynamic) refers to solubility found after equilibrating the solid with the medium. By hepatocyte CLint is commonly meant a measure of how fast metabolising enzymes remove a compound, apart from limits set by blood flow. Lower therefore signals slow turnover. What is called Cmax is the peak of the concentration-time curve. Broadly, the Tmax is the time at which the peak concentration occurs. One may read the half-life as how long it takes for the measured level to halve. A lower half-life goes with fast loss. By fraction unbound is commonly meant the share of the substance not bound to proteins or other matrix. Lower therefore signals little free substance. `CCc1nc2ncc(C)cn2c1C(=O)NCc1ccc(N2CCN(S(=O)(=O)C(F)(F)F)C=N2)c(F)c1` [Compound 161]: the solubility (thermodynamic) in [16] (fassif) was 5 µg/mL (≈ 9.48 µM); in [16] (fessif) it was 16 µg/mL (≈ 30.3 µM); in [16] (pH 2, simulated gastric fluid), 33 µg/mL (≈ 62.6 µM); in data set [16] (pH 7, aqueous buffer), less than 0.02 µg/mL. Moreover, the IC50 in data set [1] was 0.000776 µM; in data set [2], greater than 20 µM; in data set [3], greater than 10 µM; in [5], greater than 10 µM; in data set [7] (read-out: CVS hERGdof, IC50), 15.8 µM. In addition, the hepatocyte CLint in data set [17] was determined as 12 µL/min/1e6 cells; in [19] it was 19 µL/min/1e6 cells; in data set [21], 6.7 µL/min/1e6 cells; in data set [26], 4.7 µL/min/1e6 cells. Also, the AUC0-inf in data set [18] stood at 5.61 ± 2.747 µg·h/mL; in data set [18] (AUC0-inf), 10.9 ± 1.72 µg·h/mL. This compound gave a Cmax in data set [18] (Cmax) of 1.23 ± 0.406 µg/mL. In data set [18] (Tmax), the Tmax was 4 h. For the same compound, the half-life in [18] (t1/2) is 3.55 ± 0.45 h. Further, the figures for the fraction unbound in data set [20] and in [22] were 0.0245 and 0.015, respectively. For the same compound, the “AMES II” value in data set [23] is “negative”. Moreover, the Kinase panel entry in data set [24] is given as “negative”. Further, the “Glu/Gal assay ratio (mitotoxicity)” value in [6] is recorded as less than 3. Also, the “bioavailability (as shown in rodents)” value in [15] is “good bioavailaibility”. Moreover, the “Cyp 3A4 induction (% control)” value in [25] was found to be 3.0 % control.
Regarding `CCc1nc2ccc(Cl)cn2c1C(=O)NCc1ccc(N2CCC(c3ccc(OC(F)(F)F)cc3)CC2)cc1` [Compound Q203], the MIC50 in data set [27] is 0.28 nM (≈ 0.156 ng/mL).
